The results in this text go back to patent US9447438B2, “Acetyl-coA carboxylases” (OPX Biotechnologies, Inc., priority 2013, dated 2016).

One experiment addresses E. coli ACCase (Escherichia coli, UniProt P0A9Q5+P0ABD5+P0ABD8+P24182). As to conditions: FIG. 4; for decrease of the activity of the ACCase enzyme relative to control: salt levels near 0.44M; for effect of salt on E. coli ACCase activity: compared to H. elongata ACCase. The method, then:
Levels of greater than 0.66M (60 g/L) are expected to be present for commercially viable commercial production of 3-HP.
Each gene was amplified by PCRs with Pfu Ultra II HS using the manufacturer's instructions, and the PCR products were purified using the Zymo PCR Cleanup kit. Concentrations of products were measured using the Nanodrop spectophotometer. The Gibson Assembly kit (NEB) was used to construct plasmids expressing the ACCase subunit genes as directed by the manufacturer. The effect of NH4-3-HP and NH4Cl on H. elongata ACCase was tested and compared to the E. coli ACCase.

For another experiment, the system named is H. elongata ACCase. In words: Effect of NH4-3-HP and NH4Cl on H. elongata ACCase. The experiment is classed as biochemical, Halomonas elongata. As to conditions: FIG. 4; compared to E. coli ACCase. The method, then: Concentrations of products were measured using the Nanodrop spectophotometer.

Sequence of E. coli ACCase (P0A9Q5 whole entry): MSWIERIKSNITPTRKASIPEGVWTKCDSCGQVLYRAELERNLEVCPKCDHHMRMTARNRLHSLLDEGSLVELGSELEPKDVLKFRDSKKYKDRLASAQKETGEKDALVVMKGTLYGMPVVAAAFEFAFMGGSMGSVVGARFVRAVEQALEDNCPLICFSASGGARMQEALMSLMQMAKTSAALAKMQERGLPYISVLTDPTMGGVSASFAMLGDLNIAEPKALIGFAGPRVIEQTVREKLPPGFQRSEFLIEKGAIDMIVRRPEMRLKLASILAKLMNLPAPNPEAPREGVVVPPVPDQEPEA
Sequence of E. coli ACCase (P0ABD5 whole entry): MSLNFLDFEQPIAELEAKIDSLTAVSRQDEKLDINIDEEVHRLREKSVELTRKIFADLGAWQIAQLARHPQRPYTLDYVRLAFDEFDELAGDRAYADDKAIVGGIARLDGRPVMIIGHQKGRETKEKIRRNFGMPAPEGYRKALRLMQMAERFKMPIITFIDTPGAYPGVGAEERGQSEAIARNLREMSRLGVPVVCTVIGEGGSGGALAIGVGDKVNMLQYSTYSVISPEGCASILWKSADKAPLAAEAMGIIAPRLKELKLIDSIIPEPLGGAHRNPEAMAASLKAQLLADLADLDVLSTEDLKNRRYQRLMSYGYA

As to `[Cl-].[Na+]` [NaCl], at E. coli ACCase, the “decrease of the activity of the ACCase enzyme relative to control” value was “approximately 80%”.

Take `N.O=C(O)CCO` [NH4-3-HP]: the “effect of salt on H. elongata ACCase activity” value with H. elongata ACCase is on record as “less affected”. The “effect of salt on E. coli ACCase activity” value on E. coli ACCase is recorded as “significantly inhibited”.

On to `Cl.N` [NH4Cl], for which, in the experiment on H. elongata ACCase, the “effect of salt on H. elongata ACCase activity” value is on record as “less affected”. Besides, at E. coli ACCase, the “effect of salt on E. coli ACCase activity” value is “significantly inhibited” and the “decrease of the activity of the ACCase enzyme relative to control” value is listed as “approximately 80%”.
